Results from patent US8628792B2, “Drug cores for sustained release of therapeutic agents” (Mati Therapeutics, Inc., priority 2007, dated 2014).
Where “and” joins values, the source holds several entries; their conditions need not be identical. Identical values can stand only once.

Columns and labels:
[1] = topical drop to the eye; cited from earlier work
[2] = In vitro elution study of drug cores (drug in silicone matrix in polyimide tube) in 7.4 pH buffer, HPLC; format: physicochemical; details: for Duration: calculated time when ~10% of drug remains
Text: Drug cores as described above have been fabricated with different cross sectional sizes of 0.006 inches, 0.012 inches, and 0.025 inches, and drug concentrations of 5%, 10% and 20% in a silicone matrix. Theses drug cores can be made with a Syringe Tube and Cartridge Assembly, Mixing Latanoprost with Silicone, and Injecting the mixture into a polyimide tube which is cut to desired lengths and sealed. The length of the drug cores were approximately 0.80 to 0.95 mm, which for a diameter of 0.012 inches (0.32 mm) corresponds to total Latanoprost content in the drug cores of approximately 3.5 μg, 7 μg and 14 μg for concentrations of 5%, 10% and 20%, respectively.
Mix Latanoprost with Silicone. Prepare Latanoprost. Latanoprost is provided as a 1% solution in methylacetate. Place the appropriate amount of solution into a dish and using a nitrogen stream, evaporate the solution until only the Latanoprost remains. Place the dish with the Latanoprost oil under vacuum for 30 minutes. Combine Latanoprost with silicone. Prepare three different concentrations of Latanoprost (5%, 10% and 20%) in silicone Nusil 6385 and inject it into tubing of different diameters (0.006 in, 0.012 in and 0.025 inches) to generate 3×3 matrixes. The percent of Latanoprost to silicone is determined by the total weight of the drug matrix. Calculation: Weight of Latanoprost/(weight of Latanoprost+weight of silicone)×100=percent drug.
Inject tube. 1. Insert Cartridge and Polyimide tubes assembly into 1 ml syringe. 2. Add one drop of catalyst, (MED-6385 Curing Agent) in the syringe. 3. Force excess catalyst out of the polyimide tube with clean air. 4. Fill syringe with silicone drug matrix. 5, Inject tube with drug matrix until the tube is filled or the syringe plunger becomes too difficult to push. 6. Close off the distal end of the polyimide tube and maintain pressure until the silicone begins to solidify. 7. Allow to cure at room temperature for 12 hours. 8. Place under vacuum for 30 minutes. 9. Place tube in right size trim fixture (prepared in house to hold different size tubing) and cut drug inserts to length (0.80-0.95 mm).
Testing. Elution study (in vitro). 1. Place 10 plugs of same size and same concentration per centrifuge tube and add 1.5 ml of 7.4 pH buffer solution to it. 2. Change the solvent with fresh 7.4 pH buffer after appropriate time. 3. Take HPLC of the elutant at 210 nm with PDA detector 2996 using Sunfire C18, 3 mm×10 mm column (Waters Corporation, Milford, Mass.). Acetonitrile and water mixture is used for gradient elution. Calibration was done in house before and after each analysis, using in-house standards with precisely weighed concentration of Latanoprost. 4. Calculate the amount of drug release per day per device for different size tubings having different concentrations of Latanoprost. 5. Plot elution rate vs area and concentration for day 1 and day 14.

[3] = Latanoprost content per 1 mm section divided from a filled precursor tube; format: physicochemical
Protocol: (squares) unexpectedly produced a more uniform distribution of therapeutic agent latanoprost in the silicone matrix, after curing, along the entire length of the 10 cm precursor sheath, which was subsequently divided into 1 mm sections, and the latanoprost content of each sections (drug insert) determined. Extrusions carried out at room temperature (circles) and at 40° C. […] The results are significant in terms of manufacturing medically useful devices, as it is desirable to maintain a uniform content of the therapeutic agent among a plurality of drug inserts manufactured by this method.
Measurements of average latanoprost content (μg) per 1 mm section (core) divided (razor blade) from a filled precursor tube are as shown: […]

[4] = Inclusion (droplet) diameter in silicone/latanoprost cores, scanning electron micrographs; format: physicochemical; details: for average inclusion diameter and standard deviation: latanoprost-silicone mixture, n=40 inclusion; for average diameter of latanoprost droplets: silicone matrix
Protocol: A two part silicone formulation (MED6385, Nusil Technologies) was used in the preparation of a composite resin containing latanoprost, which was used to fill a section of polyimide sheathing. The sheathing containing the polymerized silicone incorporates discrete latanoprost domains, existing in the form of droplets of less than about 25 μm maximum diameter, within the matrix. Several experiments were conducted.
Part A of the MED6385 silicone formulation was mixed with 0.43 μL of Part B, the tin catalyst, using syringes, to bring about partial coagulation of the polymer over 30 minutes. Then, 37 mg of that material was mixed with a premixed solution of 0.144 additional catalyst and 13 mg latanoprost, and that mixture could be further mixed by sonication with an ultrasonic probe. The resulting mixture was transferred to a syringe needle connected to a HP7x syringe adapter, which is connected to an EFD pump, which is in turn connected to a compressed air system and the delivery pressure set to 40 psi. The silicone-latanoprost mixture is then extruded down the length (10 cm) of polyimide tubing (IWG High Performance Conductors, Inc.). When the viscous mixture reached the bottom of polyimide tubing, clamps were applied at the bottom of the tubing and at the top connection with the syringe adapter, then pressure is released and the tubing section removed. The clamped section of tubing was placed in a humidity chamber (Thunder Scientific) for curing at 40° C. and 80% relative humidity (RH) for approximately 16-24 hrs.
Scanning electron micrographs of the sheath containing the cured matrix, i.e., the filled precursor sheath, are shown in FIG. 15A-D at the magnifications indicated. The inserts were sectioned cryogenically. FIGS. 15A and 15B, respectively, show the insert cores wherein the extrusion was carried at 40° C. (A) or 25° C. (B).
The temperature of the mixture, and of the associated apparatus involved in filling the polyimide sheath was held at various temperatures during the injection process. Among the temperatures used were a slightly elevated temperature (40° C.), approximate room temperature (25° C.), and subambient temperatures, such as 0° C., −5° C., and −25° C. The subambient injection procedures are provided in this Example.
Scanning electron micrographs of the sheath containing the cured matrix, i.e., the filled precursor sheath, are shown in FIG. 15A-D at the magnifications indicated. The inserts were sectioned cryogenically. FIGS. 15C and 15D show the results of extrusions carried out at 0° C. and −25° C. respectively. They can be compared with FIGS. 15A and 15B that were carried out at ambient temperature (25° C.) or above (40° C.).
Measurements of average inclusion diameters, and standard deviation thereof, are as shown: […]

[5] = test system: IOP; details: cited from earlier work
[6] = Bimatoprost bulk sample elution, normalized to ng per device per day; format: physicochemical; details: for zero order elution rate: about 90 days
Protocol: Bulk samples of 1% Bimatoprost having a known diameter of 0.076 cm (0.76 mm) were prepared. The height of each sample was determined from the weight and known diameter of the sample.
The calculated heights ranged from 0.33 cm to 0.42 cm. The exposed surface area on each end of each bulk sample was approximately 0.045 cm2, providing volumes of 0.019 cm3 and 0.015 cm3 for the 0.42 and 0.33 cm samples, respectively. The exposed an exposed surface area of samples calculated from the height and diameter without a drug sheath was approximately 0.1 cm2. Three formulations were evaluated: 1) silicone 4011, 1% Bimatoprost, 0% surfactant; 2) silicone 4011, 1% Bimatoprost, approximately 11% surfactant; and 3) silicone 4011, 1% Bimatoprost, approximately 33% surfactant. The elution data measured for the bulk samples with formulation 1, 2 and 3 were normalized to ng per device per day (ng/device/day) assuming a surface area of the bulk device is 0.1 cm2 and the surface area of the clinical device is 0.00078 cm2 (0.3 mm diameter). […] The normalized elution profile is about 10 ng per day. […] Similar formulations can be used with drug core sheaths and a shaped exposed surface of the core exposed to the tear to increase the exposed surface area as described above and deliver the drug in therapeutic amounts over an extended period.

[7] = cited from earlier work
[8] = formulations A-D (silicone 4011 or 6385, 10-20% Latanoprost, 0-20% NaCl), non-sterile cores

CC(C)(C)NC[C@H](O)COc1nsnc1N1CCOCC1 [Timolol]
bioavailability [1]: 30-50%

CC(C)OC(=O)CCC/C=C\C[C@@H]1[C@@H](CC[C@@H](O)CCc2ccccc2)[C@H](O)C[C@@H]1O [Latanoprost]
elution rate ([2]; 7 μg core (10%, 0.32 mm diameter, 0.95 mm long), 10 to 20 days, compared with 14 μg core): comparable rates
elution rate ([2]; 14 μg core (20%, 0.32 mm diameter, 0.95 mm long), from about 10 to 40 days): approximately 100 ng per day
relative elution rate ([2]; 20% latanoprost in 6380 material with 2.5% crosslinker, 1, 4, 7 and 14 days, vs 6385 material): slightly lower elution rate
relative elution rate ([2]; 20% latanoprost in 6380 material with 5% crosslinker, all time points): lowest elution rate
relative elution rate ([2]; 20% latanoprost in 6385 material with 2.5% crosslinker, 1, 4, 7 and 14 days): highest elution rates
relative elution rate ([2]; 6385 material with 5% latanoprost, all time periods): lowest rate
elution rate ([2]; 6385 material with 5, 10, 20, 30 and 40% latanoprost, all samples, by 7 days): below 500 ng per day
elution rate, both ends open/2 compared with one end open ([2]; 6385 material with 20% latanoprost, all time points): very close to the one end open data
relative elution rate ([2]; 6385 material with 40% latanoprost, all time periods): highest rate
initial elution of Latanoprost from plug ([2]; buffered saline elution system, initial): approximately 500 ng per day
elution rate after dropping off ([2]; buffered saline elution system, within 7-14 days, depending on initial concentration): approximately 100 ng/day
Latanoprost released (elution rate) ([2]; day 1, 0.006 inch diameter core, exposed surface area approx 0.02 mm2): about 200 ng
Latanoprost released (elution rate) ([2]; day 1, 0.012 inch diameter core, exposed surface area approx 0.07 mm2): ~400 ng
Latanoprost released (elution rate) ([2]; day 1, 0.025 inch diameter core, exposed surface area approx 0.32 mm2): ~1200 ng
Latanoprost released (elution rate) ([2]; day 14, 0.006 inch diameter core, approx 0.02 mm2): about 25 ng
Latanoprost released (elution rate) ([2]; day 14, 0.012 inch (0.32 mm) diameter core, approx 0.07 mm2): ~100 ng
Latanoprost released (elution rate) ([2]; day 14, 0.025 inch diameter core, approx 0.32 mm2): ~300 ng
elution rate ([2]; e-beam sterile core, 20% latanoprost in 6385, first day): about 450 ng/day
elution rate by 3 weeks (21 days) [2, 8]: about 100 ng per device per day
initial elution rate [2, 8]: approximately 300 ng per device per day
elution rate ([2]; non-sterile core, 20% latanoprost in 6385, 14 day): about 150 ng/day
elution rate ([2]; non-sterile core, 20% latanoprost in 6385, days 4 and 7): about 400 ng/day
elution rate ([2]; non-sterile core, 20% latanoprost in 6385, first day): ~1400 ng/day
elution rate ([2]; sterile core, 20% latanoprost in 6385, 14 day): 200 ng/day
elution rate ([2]; sterile core, 20% latanoprost in 6385, days 4 and 7): about 400 ng/day
Duration ([2]; total Latanoprost content 3.5 μg): ~25 days
Duration ([2]; total Latanoprost content 7 μg): ~45 days
Duration ([2]; total Latanoprost content 14 μg): ~100 days
average latanoprost content per 1 mm section (Average±SD) ([3]; Cold extrusion (−5° C.)): 20.9 ± 0.5 µg
average latanoprost content per 1 mm section (Average±SD) ([3]; Room temperature (22° C.) extrusion): 20.2 ± 1.9 µg
average inclusion diameter and standard deviation ([4]; Cold extrusion (−5° C.)): 0.006±0.002 mm
maximum diameter of latanoprost droplets ([4]; MED6385 matrix, high pressure filling): less than 25 μm
average inclusion diameter and standard deviation ([4]; Room temp (22° C.) extrusion): 0.019+0.019 mm and 0.019±0.019 mm
average diameter of latanoprost droplets ([4]; cold extrusion (−5° C.)): 6 μm
average diameter of latanoprost droplets ([4]; extrusion at room temperature): 19 μm
duration of IOP lowering ([5]; about 200 ng of drug remaining on the eye after a drop of Xalatan): at least 24 hours
IOP reduction relative to that of the 50 μg/mL QD dose ([5]; lowest doses of 12.5 μg/mL QD or 15 μg/mL BID): 60-75%

CCNC(=O)CCC/C=C\C[C@@H]1[C@@H](/C=C/[C@@H](O)CCc2ccccc2)[C@H](O)C[C@@H]1O [Bimatoprost]
elution rate ([2]; 20% bimatoprost in NuSil 6385, 0% salt, 1 day): about 100 ng per day
relative elution rate ([2]; 20% bimatoprost in NuSil 6385, 0% salt, all time periods to two weeks): lowest elution rate
elution rate ([2]; 20% bimatoprost in NuSil 6385, 10% salt, 1 day): 400 ng per day
elution rate ([2]; 20% bimatoprost in NuSil 6385, 20% salt, 1 day): about 750 ng/day
relative elution rate ([2]; 20% bimatoprost in NuSil 6385, 20% salt, all time periods to two weeks): highest elution rate
release kinetics ([6]; from about ten days to about 90 days, each of the formulations 1-3): approximately zero order release kinetics
zero order elution rate ([6]; scaled to 0.76 mm exposed diameter (0.0045 cm2)): about 60 ng per day
zero order elution rate ([6]; scaled to exposed surface area about 0.0078 cm2): about 100 ng per day
normalized elution profile ([6]; silicone 4011, 1% Bimatoprost, 0/11/33% surfactant bulk samples, normalized to 0.3 mm exposed surface diameter (0.00078 cm2)): about 10 ng per day

O=C1OC2(c3ccc(O)cc3Oc3cc(O)ccc32)c2ccccc21 [Fluorescein]
solubility in water [7]: soluble in water
